Test results from patent US11884671B2, “Purinone compounds and their use in treating cancer” (ASTRAZENECA AB, priority 2018, dated 2024).

Legend:
[1] = molecular target: Full length human DNAPK protein (Homo sapiens (Human), UniProt P78527); test: DNAPK enzyme potency assay (DNA-PK enz), TR-FRET; format: biochemical; conditions: arithmetic mean of two or more experiments, 18 μM ATP; for IC50: read-out: DNA-PK enz pIC50 (converted)
Source text: The following assays were used to measure the effects of the compounds described herein: a) DNAPK enzyme potency assay; b) DNAPK cellular potency assay. During the description of the assays, generally: • i. The following abbreviations have been used; DMSO=Dimethyl Sulphoxide; DTT=Dithiothreitol; EDTA=Ethylenediaminetetraacetic Acid, TR-FRET=Time Resolved Fluorescence Resonance Energy Transfer, ATP=Adenosine triphosphate, DTT=Dithiothreitol, DNA=Deoxyribonucleic acid, HEPES=(2-hydroxyethyl)-1-piperazineethanesulfonic acid • ii. […] Assay a): DNAPK Enzyme Potency Assay (DNA-PK Enz)
The inhibitory activity of compounds against DNAPK was determined by TR-FRET measuring a fluorescent labelled peptide substrate converting to a phosphorylated product. Fluorescently tagged peptide substrate were purchased from Thermo Fisher Scientific. 12 point half-log compound concentration-response curves, with a top concentration of 100 μM were generated from 10 mM stocks of compound solubilised in DMSO using an Echo 555 (Labcyte Inc., Sunnyvale, CA). All assays were preformed in white Greiner 1536 well low volume plates (Greiner Bio-One, UK), in a total reaction volume of 3 μL and 1% (v/v) final DMSO concentration. Enzymes and substrates were added separately to the compound plates and incubated at room temperature. The kinase reaction was then quenched by the addition of 3 μL of stop buffer. Stopped assay plates were read using a BMG Pherastar. IC50 values were calculated using a Genedata Screener® software (Genedata, Inc., Basel, Switzerland).
Full length human DNAPK protein was purified from HeLa cell extract by ion exchange. Initially DNAPK protein was incubated with compound for 30 minutes at room temperature in reaction buffer (50 mM Hepes pH 7.5, 0.01% Brij-35, 10 mM MgCl2, 1 mM EGTA, 1 mM DTT, […] Calf Thymus DNA). The reaction was then initiated by the addition of ATP and fluorescently tagged peptide substrate (Fluorescein-[…], Thermo Fisher Scientific). […] The reaction was incubated for a further hour and the plates were read on a BMG Pherastar.
Data was analysed and IC50 values were calculated using Genedata Screener® software (Genedata, Inc., Basel, Switzerland).

[2] = molecular target: JAK1 (Homo sapiens (Human), UniProt P23458); test: JAK1 enzyme assay (Z'-LYTE); format: biochemical; conditions: 75 μM ATP, arithmetic mean of two or more experiments; for IC50: read-out: JAK1 enz pIC50 (converted)
Sequence of JAK1 (P23458 whole entry): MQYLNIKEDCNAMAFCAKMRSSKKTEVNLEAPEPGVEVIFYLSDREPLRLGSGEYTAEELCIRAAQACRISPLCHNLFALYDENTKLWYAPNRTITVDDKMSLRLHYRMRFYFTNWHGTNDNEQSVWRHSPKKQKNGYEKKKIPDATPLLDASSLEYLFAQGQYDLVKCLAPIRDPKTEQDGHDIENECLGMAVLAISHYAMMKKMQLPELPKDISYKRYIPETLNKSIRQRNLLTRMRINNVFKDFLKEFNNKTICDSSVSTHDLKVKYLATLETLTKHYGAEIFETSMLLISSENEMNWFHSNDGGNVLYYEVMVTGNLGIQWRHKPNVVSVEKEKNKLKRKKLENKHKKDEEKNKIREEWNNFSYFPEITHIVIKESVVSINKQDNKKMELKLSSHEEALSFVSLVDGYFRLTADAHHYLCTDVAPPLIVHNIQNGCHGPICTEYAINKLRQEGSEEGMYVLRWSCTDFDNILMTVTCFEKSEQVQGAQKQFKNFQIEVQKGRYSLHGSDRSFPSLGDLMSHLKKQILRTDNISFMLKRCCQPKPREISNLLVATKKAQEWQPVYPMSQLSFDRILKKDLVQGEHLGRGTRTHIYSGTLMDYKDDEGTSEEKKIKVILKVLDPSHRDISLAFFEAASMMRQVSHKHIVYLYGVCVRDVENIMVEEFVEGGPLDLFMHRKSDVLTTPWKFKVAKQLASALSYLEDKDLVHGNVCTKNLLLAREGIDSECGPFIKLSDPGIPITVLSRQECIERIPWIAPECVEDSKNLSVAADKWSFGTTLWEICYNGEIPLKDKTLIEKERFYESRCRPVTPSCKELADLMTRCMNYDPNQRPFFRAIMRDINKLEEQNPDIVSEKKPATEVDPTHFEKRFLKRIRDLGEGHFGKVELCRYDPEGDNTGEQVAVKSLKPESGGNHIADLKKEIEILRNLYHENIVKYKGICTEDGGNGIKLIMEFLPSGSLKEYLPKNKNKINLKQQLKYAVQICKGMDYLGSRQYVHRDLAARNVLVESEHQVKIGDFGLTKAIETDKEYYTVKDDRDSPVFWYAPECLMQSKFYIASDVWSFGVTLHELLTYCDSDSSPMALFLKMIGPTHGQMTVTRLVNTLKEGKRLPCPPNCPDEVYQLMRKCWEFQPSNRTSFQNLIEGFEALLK
Description: The inhibitory activity of compounds against AURKA, AURKB, JAK1, JAK2 and JAK3 was determined in Z′-LYTE® assays run by ThermoFisher Scientific as part of their SelectScreen® Biochemical Kinase Profiling Service. The Z′-LYTE® biochemical assay format employs a fluorescence-based, coupled-enzyme format and is based on the differential sensitivity of phosphorylated and non-phosphorylated peptides to proteolytic cleavage. The peptide substrate is labeled with two fluorophores—one at each end—that make up a FRET pair. In the primary reaction, the kinase transfers the gamma-phosphate of ATP to a single tyrosine, serine or threonine residue in a synthetic FRET-peptide. In the secondary reaction, a site-specific protease recognises and cleaves non-phosphorylated FRET-peptides. Phosphorylation of FRET-peptides suppresses cleavage by the Development Reagent. Cleavage disrupts FRET between the donor (i.e., coumarin) and acceptor (i.e., fluorescein) fluorophores on the FRET-peptide, whereas uncleaved, phosphorylated FRET-peptides maintain FRET. A ratiometric method, which calculates the ratio (the Emission Ratio) of donor emission to acceptor emission after excitation of the donor fluorophore at 400 nm, is used to quantitate reaction progress. Both cleaved and uncleaved FRET-peptides contribute to the fluorescence signals and therefore to the Emission Ratio. The extent of phosphorylation of the FRET-peptide can be calculated from the Emission Ratio.
10 point three-fold dilution compound concentration-response curves, with a top concentration of 10 μM were generated from 10 mM stocks of compound solubilised in DMSO. All assays were performed in black, non-binding, low volume Corning 384-well plates (cat. #4514, Corning), in a total reaction volume of 10 μL and 1% (v/v) final DMSO concentration. […] The kinase reaction was then quenched by the addition of 5 μL of Development Reagent (ThermoFisher Scientific proprietary). […] IC50 values were calculated using XLfit software (IDBS Ltd, Surrey, UK), with the curve fit to model number 205 (sigmoidal dose-response model).
JAK1: The 2×JAK/Tyr 06 (ThermoFisher Scientific proprietary) mixture was prepared in 50 mM HEPES pH 6.5, 0.01% BRIJ-35, 10 mM MgCl2, 1 mM EGTA, 0.02% NaN3. […] After the 1 hour Kinase Reaction incubation, 5 μL of a 1:128 dilution of Development Reagent was added.

[3] = molecular target: TTK (Homo sapiens (Human), UniProt P33981); test: TTK enzyme assay (LanthaScreen Eu Kinase Binding); conditions: arithmetic mean of two or more experiments; for IC50: read-out: TTK enz pIC50 (converted)
Sequence of TTK (P33981 whole entry): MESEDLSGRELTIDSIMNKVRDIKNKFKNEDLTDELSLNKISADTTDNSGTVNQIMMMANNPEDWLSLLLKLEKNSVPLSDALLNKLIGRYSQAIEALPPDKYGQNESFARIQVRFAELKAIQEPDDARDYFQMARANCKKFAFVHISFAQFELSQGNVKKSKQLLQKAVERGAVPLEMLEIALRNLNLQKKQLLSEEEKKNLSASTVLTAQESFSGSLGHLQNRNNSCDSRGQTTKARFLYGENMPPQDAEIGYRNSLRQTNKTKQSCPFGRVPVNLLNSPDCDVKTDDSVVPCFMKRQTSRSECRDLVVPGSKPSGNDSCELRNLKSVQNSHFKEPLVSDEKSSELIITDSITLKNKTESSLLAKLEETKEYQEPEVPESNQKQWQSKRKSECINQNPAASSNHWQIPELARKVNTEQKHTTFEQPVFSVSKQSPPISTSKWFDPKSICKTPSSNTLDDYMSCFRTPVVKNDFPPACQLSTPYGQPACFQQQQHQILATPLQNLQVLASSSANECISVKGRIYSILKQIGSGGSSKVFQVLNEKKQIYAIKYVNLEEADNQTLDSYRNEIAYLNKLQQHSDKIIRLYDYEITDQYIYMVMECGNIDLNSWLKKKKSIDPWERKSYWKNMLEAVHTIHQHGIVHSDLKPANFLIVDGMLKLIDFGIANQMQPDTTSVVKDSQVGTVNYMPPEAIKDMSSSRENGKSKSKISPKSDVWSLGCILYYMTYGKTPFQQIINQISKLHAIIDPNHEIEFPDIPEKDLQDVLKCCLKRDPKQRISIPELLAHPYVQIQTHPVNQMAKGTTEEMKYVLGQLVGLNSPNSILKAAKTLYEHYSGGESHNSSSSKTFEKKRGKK
Description: The inhibitory activity of compounds against TTK was determined in a LanthaScreen® Eu Kinase Binding assay run by ThermoFisher Scientific as part of their SelectScreen® Biochemical Kinase Profiling Service. The LanthaScreen® Eu Kinase Binding assay format uses binding of an Alexa Fluor® conjugate or “tracer” to a kinase, which is detected by addition of a Eu-labeled anti-tag antibody. […] The degree of FRET measured in the assay is used to determine the binding of a compound.
10 point three-fold dilution compound concentration-response curves, with a top concentration of 10 μM were generated from 10 mM stocks of compound solubilised in DMSO. All assays were performed in white, low volume Greiner 384-well plates (cat. #784207, Greiner), in a total reaction volume of 16 μL and 1% (v/v) final DMSO concentration. […] Plates were then read using a fluorescence plate reader. IC50 values were calculated using XLfit software (IDBS Ltd, Surrey, UK), with the curve fit to model number 205 (sigmoidal dose-response model).

Compound	DNA-PK enz pIC50 [1]	JAK1 enz pIC50 [2]	TTK enz pIC50 [3]	IC50 [1] [nM]	IC50 [2] [nM]	IC50 [3] [nM]
CC(=O)N1CCC(n2c(=O)n(C)c3cnc(Nc4cc5ccnnc5cc4C)nc32)CC1 [Example 1, 9-(1-acetylpiperidin-4-yl)-7-methyl-2-((7-methylcinnolin-6-yl)amino)-7,9-dihydro-8H-purin-8-one]	10.0	<5	5.9	–	–	–
CC(=O)N1CCC(n2c(=O)n(C)c3cnc(Nc4cc5cccnc5cc4C)nc32)CC1 [Example 51, 9-(1-acetylpiperidin-4-yl)-7-methyl-2-((7-methylquinolin-6-yl)amino)-7,9-dihydro-8H-purin-8-one]	>10	<5	6.4	–	–	–
Cc1cc2nccnc2cc1Nc1ncc2c(n1)n([C@H]1CCOC1)c(=O)n2C [Example 22, (S)-7-methyl-2-((7-methylquinoxalin-6-yl)amino)-9-(tetrahydrofuran-3-yl)-7,9-dihydro-8H-purin-8-one]	9.8	<5	5.5	–	–	–
CC(=O)N1CCC(n2c(=O)n(C)c3cnc(Nc4cc5ncc(C)nc5cc4C)nc32)CC1 [Example 4, 9-(1-acetylpiperidin-4-yl)-2-((2,7-dimethylquinoxalin-6-yl)amino)-7-methyl-7,9-dihydro-8H-purin-8-one]	9.0	<5	6.0	–	–	–
Cc1cc2ncccc2cc1Nc1ncc2c(n1)n(C1COC1)c(=O)n2C [Example 36, 7-methyl-2-((7-methylquinolin-6-yl)amino)-9-(oxetan-3-yl)-7,9-dihydro-8H-purin-8-one]	9.7	<5	6.0	–	–	–
Cc1cc2ncccc2cc1Nc1ncc2c(n1)n([C@@H]1CCN(C)C[C@@H]1F)c(=O)n2C [Example 46, 9-((3S,4R)-3-fluoro-1-methylpiperidin-4-yl)-7-methyl-2-((7-methylquinolin-6-yl)amino)-7,9-dihydro-8H-purin-8-one]	8.1	<5	5.4	–	–	–
Cc1cc2nccnc2cc1Nc1ncc2c(n1)n([C@H]1CC[C@H](O)CC1)c(=O)n2C [Example 10, 9-((1r,4r)-4-hydroxycyclohexyl)-7-methyl-2-((7-methylquinoxalin-6-yl)amino)-7,9-dihydro-8H-purin-8-one]	–	–	–	< 0.1	> 10000	398
Cc1cc2nccnc2cc1Nc1ncc2c(n1)n([C@H]1CC[C@@](C)(O)CC1)c(=O)n2C [Example 19, 9-((1s,4s)-4-hydroxy-4-methylcyclohexyl)-7-methyl-2-((7-methylquinoxalin-6-yl)amino)-7,9-dihydro-8H-purin-8-one]	–	–	–	0.158	> 10000	200
Cc1cc2nccc(C)c2cc1Nc1ncc2c(n1)n([C@H]1CC[C@H](O)CC1)c(=O)n2C [Example 8, 2-((4,7-dimethylquinolin-6-yl)amino)-9-((1r,4r)-4-hydroxycyclohexyl)-7-methyl-7,9-dihydro-8H-purin-8-one]	–	–	–	< 0.1	> 10000	631
Cc1cc2nccnc2cc1Nc1ncc2c(n1)n([C@@H]1CCCOC1)c(=O)n2C [Example 26, (R)-7-methyl-2-((7-methylquinoxalin-6-yl)amino)-9-(tetrahydro-2H-pyran-3-yl)-7,9-dihydro-8H-purin-8-one]	9.8	<5	5.8	–	–	–
Cc1cc2nccnc2cc1Nc1ncc2c(n1)n([C@H]1CCCOC1)c(=O)n2C [Example 28, (S)-7-methyl-2-((7-methylquinoxalin-6-yl)amino)-9-(tetrahydro-2H-pyran-3-yl)-7,9-dihydro-8H-purin-8-one]	>10	<5	6.1	–	–	–
Cc1cc2ncccc2cc1Nc1ncc2c(n1)n(C1CCN(CCO)CC1)c(=O)n2C [Example 48, 9-(1-(2-hydroxyethyl)piperidin-4-yl)-7-methyl-2-((7-methylquinolin-6-yl)amino)-7,9-dihydro-8H-purin-8-one]	9.0	<5	5.9	–	–	–
Cc1cc2ncccc2cc1Nc1ncc2c(n1)n(C1CCS(=O)(=O)CC1)c(=O)n2C [Example 35, 9-(1,1-dioxidotetrahydro-2H-thiopyran-4-yl)-7-methyl-2-((7-methylquinolin-6-yl)amino)-7,9-dihydro-8H-purin-8-one]	>10	<5	5.9	–	–	–
Cc1cc2nccnc2cc1Nc1ncc2c(n1)n([C@H]1CC[C@@H](O)CC1)c(=O)n2C [Example 13, 9-((1s,4s)-4-hydroxycyclohexyl)-7-methyl-2-((7-methylquinoxalin-6-yl)amino)-7,9-dihydro-8H-purin-8-one]	–	–	–	0.2	> 10000	316
Cc1cc2ncccc2cc1Nc1ncc2c(n1)n([C@H]1CC[C@@](C)(N)CC1)c(=O)n2C [Example 39, 9-((1s,4s)-4-amino-4-methylcyclohexyl)-7-methyl-2-((7-methylquinolin-6-yl)amino)-7,9-dihydro-8H-purin-8-one]	–	–	–	1	> 10000	3980
Cc1cc2nnccc2cc1Nc1ncc2c(n1)n([C@@H]1CCOC1)c(=O)n2C [Example 23, (R)-7-methyl-2-((7-methylcinnolin-6-yl)amino)-9-(tetrahydrofuran-3-yl)-7,9-dihydro-8H-purin-8-one]	9.4	<5	5.9	–	–	–
CC(=O)N1CCC(n2c(=O)n(C)c3cnc(Nc4cc5cncnc5cc4C)nc32)CC1 [Example 3, 9-(1-acetylpiperidin-4-yl)-7-methyl-2-((7-methylquinazolin-6-yl)amino)-7,9-dihydro-8H-purin-8-one]	>10	<5	5.4	–	–	–
